# Experiments:
# [1] = tested on: SM1 cells; assay: Phagocytosis kinetics by live cell imaging; format: cell-based, mouse
# Description: After co-culture, slides were fixed in 4% paraformaldehyde. Slides were incubated overnight with primary anti-GFP antibody (Cell Signaling, 2956) at 4° C. Slides were incubated with goat anti-rabbit IgG conjugated to Alexa Fluor 488 (A11008, ThermoFisher). Slides were mounted using VECTASHIELD Antifade Mounting Medium with DAPI (H-1200-10, Vector Laboratories, Burlingame, CA). Slides were imaged using a Zeiss 710 confocal microscope. Phagocytosis was quantified using Fiji by Image J, and the percentage of phagocytosis was calculated by dividing the number of GFP+ macrophages containing red dye in their vesicles out of total GFP+ macrophages. Live imaging was performed following a similar protocol and images were acquired through ImageXpress Pico Automated Cell Imaging System (Molecular Devices, San Jose, CA, USA).
# To assess the phagocytosis kinetics in those groups, live cell imaging was performed and phagocytosis was tracked for 4 hr. after the macrophages and SM1 cells were co-cultured for an hour. Images were acquired every four minutes thereafter.
# [2] = tested on: WM1361A melanoma cells; assay: CD47 gene expression upon IFNγ in WM1361A cells; format: cell-based, human; conditions: NextA 2.5 μM, 5 μM, and 10 μM, 12 hr post-stimulation (FIG. 3K)
# Description: qRT-PCR: Total RNA was extracted from cells using the Trizol reagent according to manufacturer's instructions (ThermoFisher Scientific, 15596018). Samples were then processed immediately or stored at −80° C. RNA was quantified using a NanoDrop One Spectrophotometer (ThermoFisher Scientific). The 260/280 ratios were routinely over 1.8. Sample cDNA was produced using the iScript cDNA synthesis kit (Bio-Rad, 1708891). Target mRNA was quantified using MyIQ single-color real-time PCR detection system from Bio-Rad (Bio-Rad, Hercules, CA) and iQ SYBR green Supermix (Bio-Rad, 1708882). […] Quantification is expressed in arbitrary units and target mRNA levels were normalized to R-actin expression.
# This phenomenon was further examined in human melanoma cell lines to test the translational application of the results obtained using mouse models. […] Furthermore, the effects of HDAC6 KD on IFNγ-driven CD47 upregulation was analyzed. […] The effects of pharmacological inhibition of HDAC6 in other human melanoma cell lines (WM1361A and WM793) were also assessed. […]
compound,measurement,setting,value
"CCCCN(Cc1ccc(C(=O)NO)cc1)C(=O)Nc1ccccc1 [NextA, Nexturastat A]",maximum phagocytosis reached,"[1]; M1 NextA treated macrophages, IgG control group (FIG. 4L)",approximately 20%
same,phagocytosis rate over time,"[1]; M1 macrophages with SM1 cells, tracked for 4 hr (FIG. 4L)",steady increase in phagocytosis over time
same,IFNγ-driven CD47 upregulation,[2],prevented

# Reference: US20230391868A1, “COMPOSITIONS FOR AND METHODS OF TREATING CANCER” (The George Washington University, priority 2022, published 2023)
